Legend:
[1] = Nasal delivery of calcitonin in MOPE excipient to rats, serum calcium; format: in vivo, rat; conditions: MOPE used as the excipient delivery vehicle; FIG. 1; change in serum calcium after one and three hours
Method: Eight Wistar Kyoto male rats, weighing 250-300 g were anesthetized with a 20% solution of urethane administered in a divided dose of 1/6 g/kg, administered intraperitoneally (IP).
The rats were surgically prepared for nasal sample instillation according to the Harai method (Hussain et al., 19800, J. Pharm. Sci., 69(12):1411-1413. A pre-drug blood sample was taken from each rat (1.0 ml drawn from retroorbital site) and allowed to clot, and the serum separated by standard technique.
The calcitonin-MOPE solution (single 50 uL doses per rate) were administered by inserting a syringe containing the sample into the rats nostril, and injecting. A blood sample was obtained from each rat after one and three hours, and assayed for serum calcium.
Serum calcium was determined colorimetrically by the Sigma Diagnostics Calcium Kit No. 587 (Sigma, St. Louis, Mo.). The change in serum calcium levels compared to pre-drug controls was plotted as a function of time. (FIG. 1)

[2] = Nasal delivery of insulin in MOPE excipient to diabetic rats, serum insulin radioimmunoassay; format: in vivo, rat
Method: The insulin-MOPE solution of Example 4 was instilled into the nasal cavity of rats according to the methods of Example 3. Right Sprague-Dawley male 300 g rats which had been made diabetic according to the methods of Weiner et al., 1985, J. Pharm. Sci., 74:922-925 were used. Blood samples were collected after one hour and serum separated according to standard methods as in Example 3. The serum was analyzed for insulin using the Coat-A-CountInsulin ^125 I radioimmunoassay (Diagnostic Products Corp., Los Angeles, Calif.).
MOPE (80.0 mg) in chloroform was dried down to a lipid film on a round bottom flask at 37° C. in a water bath. The film was resuspended in 10.0 ml of distilled water which had been pH adjusted to pH 9.0 with about 20-50 uL of 0.1N sodium hydroxide (NaOH). Four mg of porcine insulin powder (Eli Lilly, Indianapolis, Ind.) supplied as 25 U/mg, was admixed with the MOPE solution and vortically mixed, creating a 0.8% MOPE insulin gel. The resulting gel was administered to diabetic rats according to the methods of Example 5. […] The methods of the above Example were repeated, dilutions were made to result in 10 ml of each of 0.4%, 0.2%, and 0.1% MOPE, 4.0 mg of insulin being admixed with these MOPE samples as well, the complete results from serum insulin concentrations of each sample plotted together in FIG. 2. […]

Compound: CCCCCCCC/C=C\CCCCCCCC(=O)OC[C@@H](O)COP(=O)(O)OCCN [MOPE, 1-oleoyl lysophosphatidylethanolamine]
- enhancement of calcitonin through the nasal mucosa [1]: enhancement
- lipid concentration at which enhanced drug absorption of insulin occurs ([2]; excipient at about pH 7.0, cloudy fluid): about 0.8%
- MOPE concentration that has most efficacy for penetration enhancement of insulin ([2]; pH 9.0, in distilled water): 0.2%

Reference: patent US5200393A, “Lipid excipient for nasal delivery and topical application” (The Liposome Company, Inc., priority 1991, dated 1993)
